Values belong to the molecule of their own block, whether it stands above or below them.
How the values were obtained:
[1] = Stability in mouse liver S9 fraction assessed as extraction ratio at 3 uM measured upto 45 mins in presence of NADPH and UDPGA by LC-MS/MS analysis; format: ADME, subcellular
[2] = Stability in mouse liver S9 fraction assessed as half life at 3 uM measured upto 45 mins in presence of NADPH and UDPGA by LC-MS/MS analysis; format: ADME, subcellular
[3] = AUC(0 to 8 hrs) in CD-1 mouse at 60 mg/kg, po administered as repeated dose measured at day 4 by LC-MS/MS analysis; format: ADME, organism-based; parameters: route oral, time 4 day, dose 60 mg/kg; details: in vivo
[4] = Dose normalized AUC (0 to 8 hrs) in CD-1 mouse at 3 mg/kg, po administered as single dose measured over 24 hrs by LC-MS/MS analysis; format: ADME, organism-based; details: in vivo
[5] = Dose normalized Cmax in CD-1 mouse at 60 mg/kg, po administered as repeated dose measured at day 4 by LC-MS/MS analysis; format: ADME, organism-based; details: in vivo, 96 h, time 4 day
[6] = Dose normalized Cmax in CD-1 mouse at 60 mg/kg, po administered as repeated dose measured at day 1 by LC-MS/MS analysis; format: ADME, organism-based; details: in vivo, 24 h, time 1 day
[7] = Dose normalized Cmax in CD-1 mouse at 3 mg/kg, po administered as single dose measured over 24 hrs by LC-MS/MS analysis; format: ADME, organism-based; details: in vivo
[8] = Dose normalized AUC (0 to 8 hrs) in CD-1 mouse at 60 mg/kg, po administered as repeated dose measured at day 1 by LC-MS/MS analysis; format: ADME, organism-based; details: in vivo, 24 h, time 1 day
[9] = Cmax in CD-1 mouse at 60 mg/kg, po administered as repeated dose measured at day 1 by LC-MS/MS analysis; format: ADME, organism-based; parameters: route oral, time 1 day, dose 60 mg/kg; details: in vivo
[10] = Drug uptake in po dosed CD-1 mouse xenografted with human HL-60 cells administered twice daily for 4 weeks and measured 1 to 8 hrs after post last dose; format: ADME, organism-based; details: in vivo, 672 h
[11] = Apparent permeability of compound in human Caco2 cells at 10 uM incubated for 120 mins by LC-MS/MS analysis; format: ADME, cell-based; details: Caco-2
[12] = AUC(0 to 8 hrs) in CD-1 mouse at 3 mg/kg, po administered as single dose measured over 24 hrs by LC-MS/MS analysis; format: ADME, organism-based; parameters: route oral, time 24 hrs, dose 3 mg/kg; details: in vivo
[13] = Elimination half-life in CD-1 mouse at 60 mg/kg, po administered as repeated dose measured at day 4 by LC-MS/MS analysis; format: ADME, organism-based; details: in vivo, time 4 day, read-out: beta t1/2 (converted)
[14] = AUC(0 to 8 hrs) in CD-1 mouse at 60 mg/kg, po administered as repeated dose measured at day 1 by LC-MS/MS analysis; format: ADME, organism-based; parameters: route oral, dose 60 mg/kg, time 1 day; details: in vivo
[15] = Cmax in CD-1 mouse at 60 mg/kg, po administered as repeated dose measured at day 4 by LC-MS/MS analysis; format: ADME, organism-based; parameters: route oral, dose 60 mg/kg, time 4 day; details: in vivo
[16] = Observed clearance in CD-1 mouse at 3 mg/kg, po administered as single dose measured over 24 hrs by LC-MS/MS analysis; format: ADME, organism-based; details: in vivo
[17] = Dose normalized AUC (0 to 8 hrs) in CD-1 mouse at 60 mg/kg, po administered as repeated dose measured at day 4 by LC-MS/MS analysis; format: ADME, organism-based; details: in vivo, 96 h, time 4 day

ERH [1]: 0.09
Compound: Cc1cc(F)ccc1-c1cc2c(cn1)ncn2-c1ccc(OC(F)F)nc1

ERH [1]: 0.02
Compound: Cc1cc(C#N)ccc1-c1cc2c(cn1)ncn2-c1ccc(OC(F)F)cc1

half-life at […], 3 µM [2]: 0.7 h
Compound: COc1ccc(Cn2cnc3cnc(Nc4cccc(NC(C)=O)c4)cc32)cc1OC

AUC at 96 h [3]: 9220 ng·h/mL | AUC/dose [4]: 121 ng·h/mL per mg/kg | Cmax/dose [5]: 45 ng/mL | Cmax/dose [6]: 37 ng/mL | Cmax/dose [7]: 43 ng/mL | AUC/dose [8]: 164 ng·h/mL per mg/kg | Cmax [9]: 2210 ng/mL | Drug uptake [10]: Dose-Dependent Effect | Papp at 2 h, 10 µM [11]: 14 ×10⁻⁶ cm/s | AUC(0-t) at 24 h [12]: 363 ng·h/mL | half-life [13]: 8.1 h | AUC(0-t) at 24 h [14]: 9860 ng·h/mL | Cmax [15]: 2680 ng/mL | CL/F [16]: 129 mL/min/kg | AUC/dose [17]: 154 ng·h/mL per mg/kg
Compound: Cc1cc(F)ccc1-c1cc2c(cn1)ncn2-c1ccc(OC(F)F)cc1
